Measurements taken from patent US10156560B1, “Locomotive biological machines” (The Board of Trustees of the University of Illinois, priority 2013, dated 2018).
“Also recorded” adds a separate entry of the source.

Experiments:
Type in all cases: cell-based
[1] = tested on: C2C12 myoblasts; assay: Compaction and snapping of collagen-based 3D skeletal muscle strips
Experimental: C2C12 myoblasts were transfected with pAAV-Cag-Chr2-GFP-2A-Puro with Lipofectamine 2000 (Invitrogen, Carlsbad, Calif.) and grown under puromycin (2.5 μg/mL) selection for 2 weeks. Before cell seeding, bio-bots were positioned beam-down in polymerized holders in a 35-mm cell culture dish and aspirated of excess liquid. A liquid suspension of C2C12 skeletal muscle myoblasts and ECM proteins was added around the pillars of the bio-bot and polymerized via gelation of the matrix proteins. Embedded cells exerted traction forces on the fibrous proteins via integrin attachments to compact the matrix into a muscle strip over time, and the capped pillars acted as a physical anchor for the muscle strip to mimic the in vivo musculoskeletal arrangement in which force transmission occurs from a contracting muscle to bone through a connecting tendon. The ECM was a mixture of i) type I collagen or fibrin and ii) Matrigel™, a composition of laminin, entactin, and type IV collagen. Collagen and fibrin were chosen because naturally-derived hydrogels undergo macro-scale compaction when mixed with cells, leading to a substantially higher cell density and unidirectional cell alignment between the posts. For collagen strips, a cooled suspension of liquid type I collagen from rat tail (0.8, 1.4, or 2.0 mg/mL, BD Biosciences) was mixed with equal parts ice-cold growth medium and neutralized with 0.01 N NaOH. Pelleted cells (1.0-10.0×10^6 cells/mL) were resuspended in ice-cold growth medium and mixed with Matrigel™ (30% v/v, BD Biosciences). Liquid neutralized type I collagen was mixed thoroughly with cells (C2C12 myoblasts (ATCC)) and Matrigel™, and the mixtures were added to each holder. For fibrin muscle strips, an ice-cold cell-matrix solution of Matrigel™ (30% of total cell-matrix volume), fibrinogen (4 mg/mL, Sigma-Aldrich), thrombin from bovine plasma (0.5 U/mg fibrinogen, Sigma-Aldrich), and C2C12s suspended in GM at a concentration of 5×10^6 cells/mL were added to each holder. The post/beam assemblies were then incubated at 37° C. to induce collagen/fibrin polymerization, and growth medium was added to each assembly upon gelation. Time-lapsed compaction was captured with a stereomicroscope (MZ FL III, Leica).
To confirm that gel compaction was caused by traction forces from the cells, muscle strips were treated with 50 μg/mL blebbistatin (FIG. 27A). Blebbistatin blocks myosin II activity in the cells, which prevents inward translation of the traction forces. […] The muscle strips treated with IGF-1 (50 ng/mL) compacted rapidly but snapped near the posts within 24 h (FIG. 27C). Thus, the formation of muscle strips was cell-induced through passive tension around the two posts. […]

[2] = tested on: C2C12 muscle strips; assay: Lifetime of fibrin muscle strip bio-bots (days until fracture)
Experimental: Similarly, the lifetime of fibrin muscle strip bio-bots (i.e. days until fracture of the muscle strip) was affected by the presence or absence of 50 ng/mL IGF-1 and/or 1 mg/mL aminocaproic acid. There was a significant increase in the fibrin muscle strip lifetime with the addition of 1 mg/mL aminocaproic acid (25±1.15 days) compared to the control of 10% HS (8.75±7.63).

[3] = tested on: C2C12 muscle strips; assay: Passive tension force of muscle strips from beam deflection
Description: Using Euler-Bernoulli linear bending theory, a formula was derived relating the observed hydrogel beam deflection to the muscle-generated passive tension force. Assuming negligible rotation in the beam and a small angle approximation, equating the applied moment M to tension P times the moment arm I from the muscle strip to the beam reduced the second-order differential equation to
[formula] where I is the moment of inertia of the rectangular cross-section and y is the horizontal deflection of the beam. Boundary conditions were applied by assuming zero deflection at ends of the beam (L=0) and maximum deflection δmas at the center (L/2).
[formula] Beam dimensions, moment arm, and maximum deflection were averaged from 3 measurements of each device using the Measure Tool in ImageJ (NIH). Solving for P yielded the relation:
Finite element analysis was then used to model and simulate global displacement of the beam and pillars in response to an applied force; the simulated deflection values differed 18-19% from actual measurements.
To determine an optimal matrix system for engineered muscle functionality, the passive tension forces generated by collagen- and fibrin-based cell-matrix systems were compared. In muscle strips comprising the same number of cells, a significant increase in passive tension in those containing fibrin (629.3±8.2 μN) compared to collagen (534.2±5.8 μN) was observed. Advantageously, fibrin polymerizes relatively quickly when compared to other ECM proteins, and it can undergo large deformations without breaking (Liu et al., 2006, Science 313(5787):634; Janmey et al., 2009, J R Soc Interface 6(30):1-10). […]
This significant increase in force production was likely due to a greater number of differentiated myotubes in muscle strips supplemented with IGF-1. A normalized stress in the muscle strips with IGF-1 was calculated by dividing the passive tension by the cross-sectional area of the tissue, which averaged 1.2±0.04 mm^2 (n=9). […]

[4] = tested on: C2C12 myoblasts; assay: Differentiation, viability (MTS) and proliferation in muscle strips
Experimental: After 7 days, the myoblasts were induced to differentiate by switching to high-glucose DMEM supplemented with 10% horse serum (Lonza) and 50 ng/mL insulin-like growth factor-1 (IGF-1, Sigma). A protease inhibitor, aminocaproic acid (1 mg/mL, Sigma) was added to the growth and differentiation medium to prevent degradation of the extracellular matrix proteins by the cells. Differentiated, multinucleated myotubes were distributed throughout muscle strips supplemented with IGF-1.
An MTS assay was used to evaluate cell viability over time. Muscle strips comprising […] and supplemented with IGF-1 and aminocaproic acid were incubated with MTS (Promega) and phenazine methosulfate (Sigma-Aldrich) in DMEM without phenol red for 4 h at 37° C. Absorbance of MTS formazan product formation was measured at 490 nm using a Synergy HT microplate reader (BioTek) for four different time points and normalized to day 0 (day of cell seeding). The relative absorbance of muscle strips indicated a viability of cells within the muscle strip of 85.76±10.74% and 79.71±14.78% after days 6 and 9, respectively.

[5] = tested on: C2C12 muscle strips; assay: Electrically paced actuation of fibrin-based muscle strips
Experimental: To externally control muscle contraction and bio-bot locomotion, a custom-designed setup (Bajaj et al., 2011, Integr Biol (Camb) 3(9):897-909) was used to stimulate reproducible contraction of excitable cells within the muscle strip with a bipolar electrical pulse train (FIGS. 30A and 30B). The output from a waveform generator was amplified through an AD797 inverting amplifier. A capacitor C was added in series to minimize electrolysis of the media by converting the square pulse to a biphasic pulse; the system was then treated as an RC circuit (FIG. 30B). A 35-mm culture dish was modified to allow Pt electrodes of diameter 0.762 mm to pass through the lid of the dish. The average resistance of the electrical stimulation medium (DMEM without serum) was calculated by measuring the time constant τ from the oscilloscope and dividing by C for each volume at 23° C. and 37° C. The conductivity of the medium was measured using a pH/Conductivity meter (Orion 4-Star, Thermo Scientific), at 23° C. and 37° C. During stimulation, the bio-bot was placed in 4 mL of warm electrical stimulation medium between the positive and ground electrodes, and a current was applied perpendicular to the long axis, with stimulation frequencies up to 10 Hz and never exceeding more than half of the sampling frequency, per the Nyquist criterion. Bio-bots were stimulated with bipolar electrical pulses of 20 V amplitude (21.6 V/cm field strength) and 50 ms pulse width. Simultaneous imaging was achieved by positioning the dish on the stage of a stereoscope. Top-view movies were acquired with a stereomicroscope with a digital microscope camera at 9.2 fps. Side-view movies were acquired using a camcorder (Handycam DCR-SR65, Sony) at 30 fps. Electrodes were sterilized in 70% ethanol and rinsed with PBS between experiments.
Twitch contractions were observed below 8-10 Hz and tetanus above this upper frequency limit.
A Kelvin-Voigt viscoelasticity model that correlated the observed cyclic displacement to the contractile force was used to extract the active tension generated by IGF-1 supplemented muscle strips in response to electrical stimulation. The active stress generated by the muscle strip was computed as a function of the strain ε(t) and strain rate dε(t)/dt observed in the hydrogel beam with viscosity η. The time-varying displacement data was converted into time-varying strain, and the following equation was used to compute the resulting active stress: […]
The range of active tension during contraction decreased with increasing stimulation frequency, from a dynamic fluctuation of 198.68 μN during 1 Hz stimulation to 109.48 μN during 4 Hz stimulation. The active tension data followed a positive force-frequency relationship in which the magnitude of the active tension exerted by the muscle increased, even while the range of pillar motion decreased.

## Cc1ccc2c(c1)C(=O)C1(O)CCN(c3ccccc3)C1=N2 (centres unmarked) [blebbistatin]
[1]; blebbistatin in medium, 48 hours of culture
  compaction of muscle strip: lack of compaction; also recorded: prevented its compaction

## NCCCCCC(=O)O [aminocaproic acid, ε-aminocaproic acid]
[1]; 1 mg/mL in medium
  snapping of collagen muscle strip: remained intact
  time muscle strip remained stable: > 14 days
[1]; 1 mg/mL in medium, listed as EAC
  snapping of collagen muscle strip: prevented the muscle strip from snapping
[2]; 1 mg/mL
  fibrin muscle strip lifetime (days until fracture): 25 ± 1.15 days

## IGF-1: insulin-like growth factor 1, a potent mitogen
[3]; fibrin-based muscle strips
  increase in passive tension force compared to control without IGF-1: 70.7%
[3]; fibrin-based muscle strips supplemented with IGF-1
  passive tension force: 992.7±34.3 μN
[3]; muscle strips with IGF-1, tension divided by cross-sectional area
  passive stress: 0.84±0.03 kPa
[2]; 50 ng/mL
  decrease in days until fracture compared to the 1 mg/mL ACA condition: 22.0%
[2]; 50 ng/mL, control 10% HS
  decrease in days until fracture compared to the control: 51.43%
[4]; 50 ng/mL
  portion of the fibrin-based muscle strip occupied by cells: more than doubled
[4]; day 9
  cell proliferation compared to control muscle strips: enhanced cell proliferation
[5]; 1 Hz stimulation
  range of active tension during contraction: 198.68 μN
[5]; 4 Hz stimulation
  range of active tension during contraction: 109.48 μN
[5]; stimulation 1 Hz
  Output: 1.01 ± 0.003 Contractions/s
[5]; stimulation 2 Hz
  Output: 2.01 ± 0.01 Contractions/s
[5]; stimulation 4 Hz
  Output: 3.95 ± 0.05 Contractions/s
